Results: patent US20040033967A1, “Alkylated hexitol nucleoside analogues and oligomers thereof” (priority 2000, published 2004)

Columns and labels:
Type in all cases: binding
HNA complement = assay: Tm of hexameric hexitol sequences hybridised with HNA complement; conditions: hexamers
Source text: (§1) Hybridisation is the sequence specific base pair hydrogen bonding of bases of the oligonucleotide to bases of target RNA or DNA Such base pairs are said to be complementary to one another. In determining the extent of hybridization of an oligonucleotide to a complementary nucleic acid, the relative ability of an oligonucleotide to bind to the complementary nucleic acid may be compared by determining the melting temperature of a particular hybridisation complex. The melting temperature (Tm), a characteristic physical property of double helices, denotes the temperature in degrees centigrade, at which 50% helical (hybridized) versus coil (unhybridized) forms are present. Tm is measured by using the UV spectrum to determine the formation and breakdown (melting) of the hybridisation complex. Base stacking which occurs during hybridisation, is accompanied by a reduction in UV absorption (hypochromicity). Consequently, a reduction […]. The higher the Tm, the greater the strength of the bonds between the strands.
As an example a study with pyrimidine hexamers was done as depicted in Table 2. […]

complementary RNA = assay: Thermal stability of octameric HNA sequences versus RNA; conditions: octamers versus RNA, entries C and D
Source text: as §1, with “strands. The results in Table 3 confirm the results of Table 2 (example 35). […] The effect is however less than for the duplexes containing ANA or those containing the 5-methyl modification (entry E with a ΔTm/modification=1° C. and C with ΔTm/modification=2° C., respectively). […]” for “strands.”

RNA complement = assay: Tm of hexameric hexitol sequences hybridised with RNA complement; conditions: hexamers
Source text: as §1
However, this increase is less pronounced than the increase in thermal stability obtained by modifying the nucleobase with a methyl substituent in the 5-position (ΔTm=+1.1° C./modification), (compare entry A and D). […]

Structure (SMILES)	ΔTm compared to the unmodified HNA:HNA duplex (HNA complement; complementary HNA, Table 2)	ΔTm compared to HNA, pairing with hexitol oligonucleotides (HNA complement; hexitol (HNA, ANA) complements)	increase in Tm compared with the hexitol T reference (complementary RNA) [°C]	ΔTm compared to HNA, pairing with RNA sequences (RNA complement)
CO[C@@H]1[C@H](O)[C@@H](CO)OC[C@H]1n1ccc(=O)[nH]c1=O [1.1, 1,5-anhydro-3-O-methyl-2-(uracil-1-yl)-2-deoxy-altro-hexitol]	+0.6 ° C./modification	–	–	–
COC1O[C@H](CO)[C@@H](O)C[C@@H]1n1cc(C)c(=O)[nH]c1=O (stereo partly drawn) [2.2, Methyl 2-(thymin-1-yl)-2,3-dideoxy-D-arabino-hexopyranoside]	–	≈ +0.8 ° C./modification	1.6	≈ +0.3 ° C./modification
